This is an account of results in US6710044B2, “Technical field” (NeuroSearch A/S, priority 1996, dated 2004).

pIC50: −log10 of the molar value.

In data set [1] the target is benzodiazepine receptor sites (GABAA receptor complex). In words: In vitro inhibition of 3H-flunitrazepam (3H-FNM) binding, cerebral cortex membranes. The note with it: inhibition of specific binding of 3H-FNM (1 nM), rat cerebral cortex membranes, 40 min at 2° C. The protocol: The affinity of various potential ligands for the benzodiazepine receptor sites can thus be evaluated by estimating the ability of test compounds to displace ^3H-flunitrazepam.
Tissue Preparation: Preparations are performed at 0-4° C. unless otherwise indicated.
Cerebral cortex from male Wistar rats (150-200 g) is homogenized for 5-10 sec in 20 ml Tris-HCl (30 mM, pH 7.4) using an Ultra-Turrax homogenizer. The suspension is centrifuged at 27,000×g for 15 min, and the pellet is washed three times with buffer (centrifuged at 27,000×g for 10 min). The washed pellet is homogenized in 20 ml of buffer and incubated on a water bath (37° C.) for 30 min to remove endogenous GABA and then centrifuged for 10 min at 27,000×g. The pellet is then homogenized in buffer and centrifuged for 10 min at 27,000×g. The final pellet is resuspended in 30 ml buffer and the preparation is frozen and stored at −20° C.
Assay: The membrane preparation is thawed and centrifuged at 2° C. for 10 min at 27,000×g. The pellet is washed twice with 20 ml 50 mM Tris-citrate, pH 7.1 using an Ultra-Turrax homogenizer and centrifuged for 10 min at 27,000×g. The final pellet is resuspended in 50 mM Tris-citrate, pH 7.1 (500 ml buffer per g of original tissue), and then used for binding assays. Aliquots of 0.5 ml tissue are added to 25 μl of test solution and 25 μl of ^3H-FNM (1 nM, final concentration), mixed and incubated for 40 min at 2° C. Non-specific binding is determined using clonazepam (1 μM, final concentration). After incubation the samples are added 5 ml of ice-cold buffer and poured directly onto Whatman GF/C glass fibre filters under suction and immediately washed with 5 ml ice-cold buffer. The amount of radioactivity on the filters is determined by conventional liquid scintillation counting. Specific binding is total binding minus non-specific binding.
The test value is calculated as the IC50 (the concentration (nM) of the test substance which inhibits the specific binding of ^3H—FNM by 50%).

What is called pIC50 is the negative decadic logarithm of the IC50, by convention in mol/L. A low value points to a high IC50. As usually defined, the melting point is the temperature of the solid-liquid transition. As to `OCCN1CCN(c2cccc(-n3cnc4cc(-c5ccoc5)ccc43)c2)CC1` [compound 3i3, 5-(3-Furanyl)-1-(3-(4-(2-hydroxyethyl)piperazin-1-yl)phenyl)benzimidazole], the melting point lay in the range of 137 to 140 °C. Besides, the pIC50 in data set [1] is 8.30.
The like results for `CCOC(=O)c1ccc2c(c1)ncn2-c1cccc(N2CCN(CC(=O)OC)CC2)c1.Cl` [compound 4a5, 5-(Ethoxycarbonyl)-1-(3-(4-(methoxycarbonylmethyl)piperazin-1-yl)phenyl)-benzimidazole, hydrochloride] were, in that order, 185 to 186 °C and 7.30.
Take `COC(=O)Cc1ccc2c(c1)ncn2-c1cccc(N2CCN(C)CC2)c1.Cl` [compound 4l1, 5-(Methoxycarbonylmethyl)-1-(3-(4-methylpiperazin-1-yl)phenyl)benzimidazole, hydrochloride]: the melting point fell in the range of 140 to 142 °C. This molecule also had a pIC50 in data set [1] of 7.60.
The corresponding values for `COC(=O)CON=C(C)c1ccc2c(c1)ncn2-c1cccc(N2CCN(CCO)CC2)c1` [compound 5c1, 5-Acetyl-1-(3-(4-(2-hydroxyethyl)piperazin-1-yl)phenyl)benzimidazole O-(methoxy-carbonylmethyl) oxime] are 117 to 119 °C and 7.72.
The corresponding values for `CCOC(=O)c1cccc(-n2cnc3cc(-c4ccno4)ccc32)c1` [compound 6a2, 5-(5-Isoxazolyl)-1-(3-ethoxycarbonyl)phenyl benzimidazole] are 156 to 157 °C and 8.52.
The corresponding values for `O=C(OCc1ccccn1)c1cccc(-n2cnc3cc(-c4ccccc4)ccc32)c1` [compound 6b3, 5-Phenyl-1-(3-(2-picolyloxycarbonyl)phenyl)benzimidazole] are 149 to 150 °C and 8.10.
`CCOC(=O)C(=CN1CCN(c2cccc(-n3cnc4cc(-c5ccoc5)ccc43)c2)CC1)C(=O)OCC` [compound 6c6, 5-(3-Furanyl)-1-(3-(4-(2,2-bis(ethoxycarbonyl)ethenyl)piperazin-1-yl)phenyl)-benzimidazole] showed a melting point of 97 to 102 °C. Besides, the pIC50 in data set [1] is 8.15.
